Columns and labels:
S. aureus = test: SEM and TEM of treated bacteria; type: cell-based, Staphylococcus aureus; conditions: at MIC, 1 h
Protocol: (§1) Bacteria were grown to the mid-exponential growth phase. Silicon wafers were submerged in the bacterial solutions in the presence or absence of CAMs at their respective MICs and incubated for 1 h. 0.25% glucose was added to facilitate attachment. The bacteria on wafers were fixed in 2.5% glutaraldehyde for 1 h at room temperature, washed three times with PBS, and postfixed 1% osmium tetroxide. The samples were then dehydrated in a graded series of ethanol solutions (50%, 70%, 80%, 95%, 100%), dried with graded hexamethyldisilazane (50%, 100%), and left to air dry for two days. After drying, the wafers were mounted on stub and sputter-coated with 20 nm gold prior to inspection under microscope (Zeiss Sigma Field Emission SEM, Carl Zeiss, Ontario, Calif.) at 5 kV.
(§2) Bacteria were grown as described above for SEM sample preparation. In brief, bacteria were incubated in the presence or absence of CAMs at their respective MICs for 1 h. After centrifugation at 500×g for 10 min, the resulting pellet was fixed in 2.5% glutaraldehyde, washed three times with PBS, and postfixed with 1% osmium tetroxide. The samples were then dehydrated with graded ethanol series (50%, 70%, 80%, 95%, 100%) and embedded in epoxy resin (Dr. Spurr's kit, Electron Microscopy Sciences, Hatfield, Pa.). Ultrathin sections of the cells were stained with 1% uranyl acetate. […]

E. coli = test: SEM and TEM of treated bacteria; type: cell-based, Escherichia coli; conditions: at MIC, 1 h
Protocol: as §1, §2

[1] = test system: G. vaginalis pre-formed biofilms; test: MBC-B against pre-formed biofilms (Example 2); type: cell-based; conditions: pre-formed biofilm, ≥3 log reduction in viable cells
Protocol: (§3) The minimum biofilm bactericidal concentrations (MBC-Bs) of the cationic amphiphiles against pre-formed biofilms of L. monocytogenes and G. vaginalis were identified. The biofilms of the two targeted microorganisms were grown in 96-well plates according to established methodology for Gram-positive and Gram-variable bacteria (Tabak et al., FEMS microbiology letters. 2009; 301(1):69-76). To identify the reduction in the number of biofilm-associated viable cells treated with different concentrations of cationic amphiphiles, the spot plate method was used (Turovskiy et al., Infectious diseases in obstetrics and gynecology. 2012; 2012:284762, 9 pages). In brief, biofilms were washed, disrupted, diluted 10^1-10^8 times with fresh medium and the samples plated on suitable solid medium.

[2] = test system: L. monocytogenes pre-formed biofilms; test: MBC-B against pre-formed biofilms (Example 2); type: cell-based; conditions: pre-formed biofilm, ≥3 log reduction in viable cells
Protocol: as §3

[3] = test system: G. vaginalis pre-formed biofilms; test: Biofilm removal (FIG. 5); type: cell-based; conditions: 250 μg/mL against pre-formed biofilms

Row | SMILES | ultrastructural changes (TEM) (S. aureus) | ultrastructural changes (TEM) (E. coli) | MBC-B G. vaginalis [1] | MBC-B, L. monocytogenes [2] | removal of biofilm structures [3]
1 | CCCCCCCCCCOC(C(=O)NCCN)C(OCCCCCCCCCC)C(=O)NCCN.Cl.Cl (stereo not shown) [5b] | profound internal damage | extensive ultrastructural damage | approximately 31.25 μg/mL | approximately 250 μg/mL | up to 70%
2 | CCCCCCCCCC(=O)OC(C(=O)NCCN)C(OC(=O)CCCCCCCCC)C(=O)NCCN.Cl.Cl (stereo not shown) [8b] |  |  | approximately 31.25 μg/mL | approximately 250 μg/mL | 
